# Marks after values point to notes of the source that are not given here.
# Experiments:
# [1] = system: CPA-CLP sepsis mouse model; assay: Effects of LPC, LPC isomers, Xigris and DW286aa on mortalities/survivabilities in CPA-CLP sepsis mouse model (SEP009); single i.v. 6 hrs after CLP; assay type: in vivo; conditions: LPC, LPC18:0, LPC18:1, LPA 5 mpk, Xigris 0.4 mpk, DW286aa 10 mpk
# Experimental: CPA is well known as an immunosuppressive agent. […] Then, the abdomen was closed following the general procedure.
# Then, body weight and mortality changes were observed.
# In the Sham and CLP control groups, 10 ml/kg of only sterile physiological saline was single intravenously dosed.
# blood WBC = assay: Blood WBC numbers and differential counts in CPA-treated mice; assay type: in vivo, ICR mice; conditions: LPC 1, DW286 0.5, Mix 0.75 mg/kg
# Experimental: Blood were collected at sacrifice of CPA-treated model from vena cava and total blood leukocyte numbers were calculated using counting chamber, diluting pipette and Türk solution as dilution solution. All numbers were calculated as ×10^3/mm^3. In addition, cell numbers of lymphocytes, eosinophils, neutrophils, monocytes and basophils were calculated among 100 total leukocytes in smear blood samples stained with Giemsa.
# [2] = system: thymic CD3+, CD4+, CD8+ and TNF-α+ cells; assay: Immunohistochemistry of thymus (cortex and medulla) in CPA-treated mice; assay type: in vivo, ICR mice
# Experimental: After deparraffinized, CD3 epitope retrievals were conducted in 10 mM Tris-1 mM EDTA Buffer (pH 9.0), CD4 and CD8 in 1 mM EDTA Buffer (pH 8.0), and TNF-α in 10 mM Citrate Buffer (pH 6.0) as previous methods. Primary anti-antibodies used in the invention were as following table.
# The water bath with a staining dish, containing a buffer, was preheated until the temperature reached 95-100. The staining dish was placed at room temperature and the slides were cooled for 20 minutes. After epitope retrivals, sections were immunostained as following steps
# First, the sections were incubated with methanol and 0.3% H2O2 for 30 min to block endogenous peroxidase activity at room temperature, and then rinsed three times in 0.01M phosphate buffered saline (PBS; pH 7.2) for 3 times. Then, the sections were incubated with the normal horse serum blocking solution (Vector Lab. Inc., CA, USA., dilution 1:100) for 1 hr at room temperature in a humidity chamber, to block non-specific binding of immunoglobulin, and then rinsed three times in 0.01M PBS. The sections were incubated with four types of primary antisera for 12 hrs at 4 in a humidity chamber, and then rinsed three times in 0.01M PBS. The sections were incubated with universal biotinylated secondary antibody for 1 hr at room temperature in a humidity chamber, and then rinsed three times in 0.01M PBS. The sections were incubated with ABC reagents (Vectastain Elite ABC Kit, Vector Lab. Inc., CA, USA. Dilution 1:50) for 1 hr at room temperature in a humidity chamber, and then rinsed three times in 0.01M PBS. The sections were incubated in the peroxidase substrate kit (Vector Lab. Inc., CA) for 30 seconds at room temperature, and then rinsed three times in 0.01M PBS. The sections were counterstained with the Mayer's hematoxylin solution, and then rinsed in running tap water for 30 minutes. The sections were dehydrated through 95% ethanol for 2 min and 100% ethanol for […], and then rinsed in xylene for 2 hrs. After that, the sections were observed using a cover slip with permanent mounting medium under the light microscope (Zeiss, Germany).
# Histomorphometry—Among 1000 splenic or thymic cells, the numbers (N) of immunoreactive cells (CD3+, CD4+, CD8+, and TNF-α+) were observed as N/1000 splenocytes or thymocytes using automated image analysis. In thymus, the counts were conducted in the both cortex and medulla separately.
# [3] = system: bone marrow polychromatic erythrocytes; assay: Bone marrow MNPCE and PCE/(PCE+NCE) in CPA-treated mice; conditions: LPC 1, DW286 0.5, Mix 0.75 mg/kg
# Experimental: (§1) In Intact control animals, equal volume of saline was only dosed instead of CPA with same methods.
# In brief, bone marrow cells were collected from aforementioned femur in 3 ml of inactivated fetal bovine serum (GIBCO BRL, USA), centrifuged, and smeared on slide. Preparations were dried, and fixed by submerging in absolute methanol (for 10˜20 min). Fixed slides were stained as follow:
# Slides were randomly coded and examined under×1000 magnification by two different experts. Small round or oval shaped bodies, size of which ranging about ⅕ to 1/20 of diameter of PCE, were counted as micronuclei. Attention was given to discriminate micronuclei from artifacts. Results were expressed as the number of MNPCEs in 1000 PCEs. Mean number of MNPCE±S.D. was calculated for each treatment group.
# (§2) Appropriate doses of candidate materials were dissolved in 5% human serum albumin, and subcutaneously dosed at 10 ml/kg (of body weight), 4 times 12-hr intervals from 6 hrs after CLP or 24 hrs after last CPA-dosing, respectively. In the INTACT, CPA, or CPA-CLP control groups, an equal volume of 5% human serum albumin was dosed by the same procedure.
# [4] = Body weight of CPA-treated mice (Example 9); s.c. 4 times 12-hr intervals from 24 hrs after last CPA-dosing; conditions: LPC 1, DW286 0.5, Mix 0.75 mg/kg
# Experimental: In the INTACT control group, an equal volume of physiological saline was dosed instead of CPA by the same method.
# as §1
# In CPA-CLP model, body weight and mortalities were measured once a day for 5 days with automatic electronic balances (Sartorius Co., Ltd., USA), once a day for 2 days in CPA-treated model. All animals were overnight fasted at CPA dosing, CLP or initial dosing to reduce differences from feeding. In addition, body weight gains were calculated as follows:
# CPA-Treat Model: Body weight at sacrifice—at initial dosing (2 days)
# To find suitable dosing regime of LPC and DW286AA combination during the development of new therapeutic agents against sepsis, evaluation was conducted by using CPA-CLP— and CPA-induced immunosuppressive mice. […] Then, mortalities, changes in thymus and spleen weights, changes in white blood cell (WBC) number, and changes in thymic and splenic CD3+, CD4+, CD8+, and TNF-α+ cell numbers, were evaluated together with changes in bone marrow polychromatic erythrocytes contain micronuclei (MNPCE) number.
# as §2
# [5] = LPC 1, DW286 0.5, Mix 0.75 mg/kg
# [6] = thymus cortex, CPA-treated mice, Mean ± S.D., n = 9
# [7] = thymus medulla, CPA-treated mice, Mean ± S.D., n = 9
substance,measurement,setting,value
Lysophosphatidylcholine [LPC],Mortalities,[1]; 1st CPA treat,0
same,survivabilities,[1]; 1st CPA treat,100%
same,Mortalities,[1]; 2nd CPA treat,0
same,survivabilities,[1]; 2nd CPA treat,100%
same,Mortalities,[1]; At CLP (day 0),0
same,survivabilities,[1]; At CLP (day 0),100%
same,Mortalities,[1]; Day 1,1
same,survivabilities,[1]; Day 1,90%
same,Mortalities,[1]; Day 2,3
same,survivabilities,[1]; Day 2,60%
same,Mortalities,[1]; Day 3,1
same,survivabilities,[1]; Day 3,50%
same,Mortalities,[1]; Day 4,1
same,survivabilities,[1]; Day 4,40%
same,Mortalities,[1]; Day 5,2
same,survivabilities,[1]; Day 5,20%
same,Mortalities,[1]; Day 6,0
same,survivabilities,[1]; Day 6,20%
same,Mortalities,[1]; Day 7,1
same,survivabilities,[1]; Day 7,10%
same,Mortalities,[1]; Day 8,1
same,survivabilities,[1]; Day 8,0%
same,Mortalities,[1]; Day 9,0
same,survivabilities,[1]; Day 9,0%
same,Mortalities,[1]; Day 10,0
same,survivabilities,[1]; Day 10,0%
same,Mortalities,[1]; Total,10
same,survivabilities,[1]; Total,0%
same,"blood total WBC numbers, change compared to CPA control",blood WBC,25.00%
same,"ratio of lymphocytes, change compared to CPA control",blood WBC,268.78%
same,"ratio of monocytes, change compared to CPA control",blood WBC,−85.27%
same,"ratio of neutrophils, change compared to CPA control",blood WBC,−51.07%
same,Total WBC,blood WBC; blood at sacrifice,0.58 ± 0.14 ×10^3/mm^3
same,WBC differentials: Basophils,blood WBC; blood at sacrifice,"2.33 ± 1.22*^,## %"
same,WBC differentials: Eosinophils,blood WBC; blood at sacrifice,1.33 ± 1.12 %
same,WBC differentials: Lymphocytes,blood WBC; blood at sacrifice,70.22 ± 9.90 %
same,WBC differentials: Monocytes,blood WBC; blood at sacrifice,5.56 ± 3.13 %
same,WBC differentials: Neutrophils,blood WBC; blood at sacrifice,20.56 ± 8.76 %
same,"numbers of thymic cortex CD3+ cells, change compared to CPA control",[2]; [5],328.69%
same,"numbers of thymic cortex CD4+ cells, change compared to CPA control",[2]; [5],408.70%
same,"numbers of thymic cortex CD8+ cells, change compared to CPA control",[2]; [5],11.11%
same,"numbers of thymic medulla CD3+ cells, change compared to CPA control",[2]; [5],12466.67%
same,"numbers of thymic medulla CD4+ cells, change compared to CPA control",[2]; [5],−9.09%
same,"numbers of thymic medulla CD8+ cells, change compared to CPA control",[2]; [5],−5.56%
same,"thymic cortex TNF-α+ cells, change compared to CPA control",[2]; [5],65.22%
same,"thymic medulla TNF-α+ cells, change compared to CPA control",[2]; [5],133.33%
same,"CD3+ cells, Thymus: Cortex (IHC-Histomorphometry)",[2]; [6],780.22 ± 85.78 N/1000 splenocytes or thymocytes
same,"CD4+ cells, Thymus: Cortex (IHC-Histomorphometry)",[2]; [6],"13.00 ± 2.45*^,# N/1000 splenocytes or thymocytes"
same,"CD8+ cells, Thymus: Cortex (IHC-Histomorphometry)",[2]; [6],3.33 ± 1.22 N/1000 splenocytes or thymocytes
same,"TNF-α+ cells, Thymus: Cortex (IHC-Histomorphometry)",[2]; [6],4.22 ± 1.20 N/1000 splenocytes or thymocytes
same,"CD3+ cells, Thymus: Medulla (IHC-Histomorphometry)",[2]; [7],"41.89 ± 10.23*^,# N/1000 splenocytes or thymocytes"
same,"CD4+ cells, Thymus: Medulla (IHC-Histomorphometry)",[2]; [7],2.22 ± 0.97 N/1000 splenocytes or thymocytes
same,"CD8+ cells, Thymus: Medulla (IHC-Histomorphometry)",[2]; [7],1.89 ± 0.60 N/1000 splenocytes or thymocytes
same,"TNF-α+ cells, Thymus: Medulla (IHC-Histomorphometry)",[2]; [7],1.33 ± 1.00 N/1000 splenocytes or thymocytes
same,"MNPCE numbers, change compared to CPA control",[3],−14.34%
same,"PCE/(PCE+NCE), change compared to CPA control",[3],−12.98%
same,NCE,[3]; among 500 erythrocytes,377.11 ± 22.32
same,PCE,[3]; among 500 erythrocytes,122.89 ± 22.32
same,PCE/(NCE + PCE),[3]; among 500 erythrocytes,0.25 ± 0.04
same,% MNPCE,[3]; among 1000 PCEs,2.46 ± 0.75 %
same,Body weight,[4]; 1 day after second CPA-dosing,36.54 ± 1.72 g
same,Body weight,[4]; 2 days after second CPA-dosing,37.04 ± 1.47 g
same,Body weight,[4]; At Dosing (overnight fasted),32.08 ± 1.47 g
same,Body weight,[4]; At First CPA dosing (overnight fasted),36.58 ± 1.36 g
same,Body weight gains during 2 days after dosing,[4],4.97 ± 1.67 g
same,body weight (gains) change compared to the CPA control group,[4],−12.35%
